Results published in patent US11207461B2, “Drug delivery system and method for controlled and continuous delivery of drugs into the brain by bypassing the blood brain barrier” (priority 2015, dated 2021).

Tests used:
[1] = rabbit
From the text: The device was surgically placed in a rabbit in the maxillary sinus region by removing the bone overlying the respiratory mucosa. The tip of the device was placed beneath the maxillary sinus lining mucosa in contact with the connective tissue side of the mucosa. […] FIG. 15 refers to the comparative brain values of dopamine using High Performance Liquid Chromatography, between the control and the rabbit in which dopamine was delivered in vivo in a continuous and controlled manner under the maxillary sinus mucosa using the drug delivery system. […] The drug delivery was stopped at the twentieth minute. […] FIG. 16 refers to blood values of dopamine in the rabbit after in vivo delivery of dopamine under the maxillary sinus mucosa using the device.

[2] = rabbit; blood samples before and at 10, 20 and 30 minutes after start of drug delivery; FIG. 18
Method: The device was placed into the maxillary sinus of a rabbit by perforating the maxillary sinus mucosa from the connective tissue side and placing the implant tip into the sinus cavity and above the epithelial layer. […] Whole body perfusion was done using a peristaltic pump with warm physiological saline for 20 minutes at a controlled rate. The perfused brain was then resected at the end one hour from the start of the procedure. Brain samples from different parts of the brain was analyzed using High Performance Liquid Chromatography. […] During the procedure, a blood sample was collected before drug delivery. Three blood samples were then collected at intervals of 10, 20 and 30 minutes respectively following start of drug delivery. The samples were analyzed using High Performance Liquid Chromatography.

blood value of dopamine (HPLC) after drug delivery was stopped ([1]; blood sample at 30 minutes, delivery stopped at the twentieth minute, FIG. 16) | blood values of dopamine (HPLC) during drug delivery ([1]; blood samples at 10 and 20 minutes after start of drug delivery, versus sample before delivery, FIG. 16) | Compound | drug in peripheral circulation during drug delivery ([1]; dopamine infused under maxillary sinus mucosa, during the 20 minute delivery) | brain concentration of dopamine (HPLC) compared with the normal ([1]; infused under maxillary sinus mucosa for twenty minutes at 1 milliliter per hour, perfused brain resected at one hour, samples from different parts of the brain, FIG. 15) | blood values of lignocaine (HPLC), drug in peripheral circulation [2]
peaked again | dipped | NCCc1ccc(O)c(O)c1 [Dopamine] | no increase of the drug in peripheral circulation | increased concentration of dopamine in all parts of the brain except diencephalon | –
– | – | CCN(CC)CC(=O)Nc1c(C)cccc1C [Lignocaine] | – | – | no drug in the peripheral circulation
